For 29 compounds, IC50 results are on record in US20130274254A1, “INHIBITORS OF CYTOCHROME P450 (CYP3A4)” (Gilead Sciences, Inc., priority 2010, published 2013).

One may read the IC50 as the concentration that gives 50% inhibition.

The target of series [1] is T1, CYP3A4 (Homo sapiens, UniProt P08684). Briefly: CYP3A inhibition assay, testosterone 6β-hydroxylase activity in pooled human hepatic microsomal fraction. The method, then:
Pooled (n≧15 donors) human hepatic microsomal fraction was obtained from BD-Gentest (Woburn, Mass.) who also supplied hydroxy-terfenadine, 4′-hydroxydiclofenac and NADPH regenerating system. Ritonavir was prepared from commercial Norvir® oral solution (Abbott Laboratories, Abbott Park, Ill.). Other reagents were from Sigma-Aldrich (St. Louis, Mo.) and included terfenadine, fexofenadine, BRL 15572, diclofenac and mefenamic acid.
Incubations were performed in duplicate in 50 mM potassium phosphate buffer, pH 7.4 with NADPH regenerating system used as described by the manufacturer. […] The final substrate concentrations used were equal to the apparent Km values for the activities determined under the same conditions. Inhibitors were dissolved in DMSO, and the final concentration of DMSO, from both substrate and inhibitor vehicles, was 1% (v/v). Incubations were performed at 37° C. with shaking and were initiated by addition of substrate. Aliquots were then removed at 0, 7 and 15 minutes. Samples were quenched by treatment with an acetonitrile, formic acid, water (94.8%/0.2%/5%, v/v/v) mixture containing internal standard. Precipitated protein was removed by centrifugation at 3000 rpm for 10 min and aliquots of the supernatant were then subjected to LC-MS analysis.
The LC-MS system consisted of a Waters Acquity UPLC, with a binary solvent manager and a refrigerated (8° C.) sample organizer and sample manager, interfaced to a Micromass Quattro Premier tandem mass spectrometer operating in electrospray ionization mode. The column was a Waters Acquity UPLC BEH C18 2.1×50 mm, 1.7 μm pore size. Mobile phases consisted of mixtures of acetonitrile, formic acid and water, the composition for mobile phase A being 1%/0.2%/98.8% (v/v/v) and that for mobile phase B being 94.8%/0.2%/5% (v/v/v). The injection volumes were 5 μL and the flow rate was 0.8 mL/min. Concentrations of metabolites were determined by reference to standard curves generated with authentic analytes under the same conditions as the incubations.
(§1) IC50 values (the concentration of inhibitor reducing CYP3A activity by 50%) were calculated by non-linear regression using GraphPad Prism 4.0 software and a sigmoidal model.
For midazolam hydroxylase determination the final concentrations of microsomal protein and […] substrate were 0.25 mg/mL and 2.5 μM, respectively, and the LC-MS internal standard was 1α-hydroxytriazolam. For testosterone hydroxylase activity the final microsomal protein concentration was 0.5 mg/mL, the substrate concentration was 50 μM and the LC-MS internal standard was D7-labeled 6β-hydroxytestosterone. After incubation at 37° C. for 5 minutes, metabolic reactions were terminated by treatment with quench solution containing the appropriate internal standard and were subsequently centrifuged before aliquots of the supernatant were removed and diluted with 0.1% (v/v) formic acid for LC-MS analysis.
(§2) For LC-MS analysis the column was a Phenomenex Synergi Max RP 4 μm column (50×2.0 mm) and the injection volume was 5 μL. The MS/MS ion current metabolite/internal standard peak area ratios (PAR) were measured on an Applied Biosystems SciEx API4000 triple quadrupole mass spectrometer coupled to a Leap CTC PAL autosampler with a 20 μL loop and a Shimadzu LC pump with a 25 μL mixer. The initial mobile phase consisted of 94.9% water, 0.1% formic acid, and 5% acetonitrile (v/v/v) pumped at 0.5 mL/min. After 0.5 min the acetonitrile concentration was increased to 30% over 0.5 min. The acetonitrile concentration was then further increased to 100% over 0.5 min and held for 1.3 min, after which the column was re equilibrated at the initial conditions for 1.2 min. Rates of metabolite formation were determined from standard curves using PAR determined with authentic metabolite standards.

Series [2] addresses T1, CYP3A4. Briefly: CYP3A inhibition assay, midazolam 1'-hydroxylase activity in pooled human hepatic microsomal fraction. Type of series: biochemical. The settings on record: pooled human liver microsomes, pH 7.4, probe midazolam (1'-hydroxylation), 0.25 mg/mL microsomal protein. The procedure: Pooled (n≧15 donors) human hepatic microsomal fraction was obtained from BD-Gentest (Woburn, Mass.) who also supplied hydroxy-terfenadine, 4′-hydroxydiclofenac and NADPH regenerating system. Ritonavir was prepared from commercial Norvir® oral solution (Abbott Laboratories, Abbott Park, Ill.). Other reagents were from Sigma-Aldrich (St. Louis, Mo.) and included terfenadine, fexofenadine, BRL 15572, diclofenac and mefenamic acid. […]
as §1
[…] For testosterone hydroxylase activity the final microsomal protein concentration was 0.5 mg/mL, the substrate concentration was 50 μM and the LC-MS internal standard was D7-labeled 6β-hydroxytestosterone. After incubation at 37° C. for 5 minutes, metabolic reactions were terminated by treatment with quench solution containing the appropriate internal standard and were subsequently centrifuged before aliquots of the supernatant were removed and diluted with 0.1% (v/v) formic acid for LC-MS analysis.
as §2
(Microsomes from liver hold many membrane-bound enzymes, among them those of drug oxidation.)

T1 sequence (P08684 2-503): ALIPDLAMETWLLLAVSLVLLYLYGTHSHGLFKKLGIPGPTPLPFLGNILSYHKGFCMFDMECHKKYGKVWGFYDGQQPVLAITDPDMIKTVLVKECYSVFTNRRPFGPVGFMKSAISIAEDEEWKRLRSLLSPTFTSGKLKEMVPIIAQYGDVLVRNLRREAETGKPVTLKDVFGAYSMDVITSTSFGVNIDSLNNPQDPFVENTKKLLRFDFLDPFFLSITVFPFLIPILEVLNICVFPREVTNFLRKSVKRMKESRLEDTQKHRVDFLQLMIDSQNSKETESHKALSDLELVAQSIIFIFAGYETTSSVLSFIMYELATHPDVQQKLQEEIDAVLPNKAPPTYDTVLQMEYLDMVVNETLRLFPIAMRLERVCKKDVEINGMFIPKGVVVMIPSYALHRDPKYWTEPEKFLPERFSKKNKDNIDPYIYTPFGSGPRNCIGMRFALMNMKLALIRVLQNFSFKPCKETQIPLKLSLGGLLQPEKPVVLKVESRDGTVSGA

In the case of `CN(Cc1cccnc1)C(=O)N[C@@H](CCN1CCOCC1)C(=O)N[C@H](CC[C@H](Cc1ccccc1)NC(=O)OCc1cncs1)Cc1ccccc1` [Compound 59], in series [1], the IC50 came out at 450 nM. The 50% inhibitory concentration (IC50) at 5 min in series [2] is < 0.1 µM.
For `CN(Cc1ccccn1)C(=O)N[C@@H](CCN1CCOCC1)C(=O)N[C@H](CC[C@H](Cc1ccccc1)NC(=O)OCc1cncs1)Cc1ccccc1` [Compound 61], the IC50 in series [1] was determined as 530 nM. Also, in series [2], the half-inhibitory concentration (IC50) at 5 min is 0.19 µM.
Take `CN(C)C(=O)N[C@@H](CCN1CCOCC1)C(=O)N[C@H](CC[C@H](Cc1ccccc1)NC(=O)OCc1cncs1)Cc1ccccc1` [Compound 16]: the IC50 in series [1] was 710 nM. For the same compound, the concentration for half-maximal inhibition (IC50) at 5 min in series [2] is 0.15 µM.
Take `CC(C)c1nc(CN(C)C(=O)N[C@H](C(=O)N[C@H](CC[C@H](Cc2ccccc2)NC(=O)OCc2cccnc2)Cc2ccccc2)C(C)C)cs1` [Compound 73]: the IC50 in series [1] amounted to 450 nM. In addition, the IC50 at 5 min in series [2] is 0.16 µM.
Consider `O=C(NC1CCCCC1)N[C@@H](CCN1CCOCC1)C(=O)N[C@H](CC[C@H](Cc1ccccc1)NC(=O)OCc1cncs1)Cc1ccccc1` [Compound 18], for which, in series [1], the half-inhibitory concentration (IC50) was 350 nM. The half-maximal inhibitory concentration (IC50) at 5 min in series [2] worked out at 0.18 µM.
On to `CC(=O)NCC[C@H](NC(=O)N(C)C(C)C)C(=O)N[C@@H](CC[C@@H](Cc1ccccc1)NC(=O)OCc1cncs1)Cc1ccccc1` [Compound 36], for which the half-maximal inhibitory concentration (IC50) in series [1] is 240 nM. The concentration for half-maximal inhibition (IC50) at 5 min in series [2] is < 0.1 µM.
`CC(C)N(C)C(=O)N[C@H](CCN1CCOCC1)C(=O)N[C@H](CC[C@H](Cc1ccccc1)NC(=O)OCc1cncs1)Cc1ccccc1` [Compound 53]: the concentration for half-maximal inhibition (IC50) in series [1] is 260 nM. In addition, the 50% inhibitory concentration (IC50) at 5 min in series [2] is < 0.1 µM.
For `CC(C)[C@H](NC(=O)N(C)C(C)C)C(=O)N[C@H](CC[C@H](Cc1ccccc1)NC(=O)OCc1cncs1)Cc1ccccc1` [Compound 29], in that order: 320 nM and < 0.1 µM.
With `CC(C)CN(C)C(=O)N[C@@H](CCN1CCOCC1)C(=O)N[C@H](CC[C@H](Cc1ccccc1)NC(=O)OCc1cncs1)Cc1ccccc1` [Compound 14], the IC50 in series [1] came to 320 nM. Also, the IC50 at 5 min in series [2] came to 0.13 µM.
Take `CC(C)c1nc(CN(C)C(=O)N[C@H](C(=O)N[C@H](CC[C@H](Cc2ccccc2)NC(=O)CCc2cccs2)Cc2ccccc2)C(C)C)cs1` [Compound 89]: the IC50 in series [1] amounted to 2300 nM. Besides, the IC50 at 5 min in series [2] was found to be 0.7 µM.
Taken in the same sequence, the figures for `CC(C)[C@H](NC(=O)N1CCN(C)CC1)C(=O)N[C@H](CC[C@H](Cc1ccccc1)NC(=O)OCc1cncs1)Cc1ccccc1` [Compound 28] were 470 nM and 0.19 µM.
As to `Cc1ncsc1CCC(=O)N[C@H](CC[C@H](Cc1ccccc1)NC(=O)[C@@H](NC(=O)N(C)Cc1csc(C(C)C)n1)C(C)C)Cc1ccccc1` [Compound 90], the IC50 in series [1] was 450 nM. For the same compound, the half-inhibitory concentration (IC50) at 5 min in series [2] stood at 0.19 µM.
As for `CC(=O)NCC[C@H](NC(=O)N(C)C(C)C)C(=O)N[C@H](CC[C@H](Cc1ccccc1)NC(=O)OCc1cncs1)Cc1ccccc1` [Compound 35], the IC50 in series [1] is 150 nM. For the same compound, in series [2], the IC50 at 5 min came to 0.15 µM.
With `CN(C(=O)N[C@@H](CCN1CCOCC1)C(=O)N[C@H](CC[C@H](Cc1ccccc1)NC(=O)OCc1cncs1)Cc1ccccc1)C1CCCCC1` [Compound 19], the IC50 in series [1] was determined as 280 nM. For the same compound, in series [2], the IC50 at 5 min was 0.18 µM.
Regarding `CN(Cc1ccc(F)cc1)C(=O)N[C@@H](CCN1CCOCC1)C(=O)N[C@H](CC[C@H](Cc1ccccc1)NC(=O)OCc1cncs1)Cc1ccccc1` [Compound 20], the IC50 in series [1] was 360 nM. The concentration for half-maximal inhibition (IC50) at 5 min in series [2] was 0.11 µM.
Turning to `CN(C(=O)N[C@@H](CCN1CCOCC1)C(=O)N[C@H](CC[C@H](Cc1ccccc1)NC(=O)OCc1cncs1)Cc1ccccc1)C(C)(C)C` [Compound 11], the IC50 in series [1] came out at 420 nM. The IC50 at 5 min in series [2] was found to be 0.13 µM.
With `O=C(N[C@H](CC[C@H](Cc1ccccc1)NC(=O)[C@H](CCN1CCOCC1)NC(=O)N1CCCC1)Cc1ccccc1)OCc1cncs1` [Compound 10], in series [1], the half-maximal inhibitory concentration (IC50) came to 320 nM. The IC50 at 5 min in series [2] worked out at 0.22 µM.
For `O=C(N[C@H](CC[C@H](Cc1ccccc1)NC(=O)[C@H](CCN1CCOCC1)NC(=O)N1CCOCC1)Cc1ccccc1)OCc1cncs1` [Compound 12], in that order: 640 nM and 0.2 µM.
`COCCN(C)C(=O)N[C@@H](CCN1CCOCC1)C(=O)N[C@H](CC[C@H](Cc1ccccc1)NC(=O)OCc1cncs1)Cc1ccccc1` [Compound 21]: the IC50 in series [1] amounted to 560 nM. Also, in series [2], the half-inhibitory concentration (IC50) at 5 min amounted to 0.26 µM.
On to `CN(Cc1ccccc1)C(=O)N[C@@H](CCN1CCOCC1)C(=O)N[C@H](CC[C@H](Cc1ccccc1)NC(=O)OCc1cncs1)Cc1ccccc1` [Compound 17], for which the IC50 in series [1] was determined as 300 nM. For the same compound, the IC50 at 5 min in series [2] was found to be 0.13 µM.
On to `CN(Cc1ccco1)C(=O)N[C@@H](CCN1CCOCC1)C(=O)N[C@H](CC[C@H](Cc1ccccc1)NC(=O)OCc1cncs1)Cc1ccccc1` [Compound 60], for which, in series [1], the concentration for half-maximal inhibition (IC50) was determined as 290 nM. Besides, the IC50 at 5 min in series [2] amounted to 0.13 µM.
For the compound `CC(C)(C)OC(=O)N[C@@H](CCN1CCOCC1)C(=O)N[C@H](CC[C@H](Cc1ccccc1)NC(=O)OCc1cncs1)Cc1ccccc1` [Compound 54], the concentration for half-maximal inhibition (IC50) in series [1] amounted to 410 nM. Besides, the IC50 at 5 min in series [2] is < 0.1 µM.
For `CC(C)c1nc(CN(C)C(=O)N[C@H](C(=O)N[C@H](CC[C@H](Cc2ccccc2)NC(=O)OC(C)(C)C)Cc2ccccc2)C(C)C)cs1` [Compound 70], the half-maximal inhibitory concentration (IC50) in series [1] turned out to be 1500 nM. In addition, the IC50 at 5 min in series [2] is 0.72 µM.
Turning to `CC(=O)NCC[C@H](NC(=O)N1CCCCC1)C(=O)N[C@H](CC[C@H](Cc1ccccc1)NC(=O)OCc1cncs1)Cc1ccccc1` [Compound 40], in series [1], the IC50 was 220 nM. Besides, the concentration for half-maximal inhibition (IC50) at 5 min in series [2] was 0.1 µM.
Turning to `CN1CCN(C(=O)N[C@@H](CCN2CCOCC2)C(=O)N[C@H](CC[C@H](Cc2ccccc2)NC(=O)OCc2cncs2)Cc2ccccc2)CC1` [Compound 15], in series [1], the 50% inhibitory concentration (IC50) is 1100 nM. Also, the half-inhibitory concentration (IC50) at 5 min in series [2] was 0.41 µM.
With `CC(C)[C@H](NC(=O)N1CCOCC1)C(=O)N[C@H](CC[C@H](Cc1ccccc1)NC(=O)OCc1cncs1)Cc1ccccc1` [Compound 27], the IC50 in series [1] was determined as 250 nM. In series [2], the IC50 at 5 min is 0.11 µM.
Taken in the same sequence, the figures for `CC(=O)NCC[C@H](NC(=O)N1CCCCC1)C(=O)N[C@@H](CC[C@@H](Cc1ccccc1)NC(=O)OCc1cncs1)Cc1ccccc1` [Compound 41] were 400 nM and < 0.1 µM.
For `CC(C)N(C)C(=O)N[C@@H](CCN1CCOCC1)C(=O)N[C@H](CC[C@H](Cc1ccccc1)NC(=O)OCc1cncs1)Cc1ccccc1` [Compound 7], the IC50 in series [1] stood at 310 nM. Further, in series [2], the IC50 at 5 min is 0.14 µM.
On to `O=C(N[C@H](CC[C@H](Cc1ccccc1)NC(=O)[C@@H]1C[C@@H](O)CN1C(=O)OCc1ccccc1)Cc1ccccc1)OCc1cncs1` [Compound 67], for which the IC50 in series [1] amounted to 210 nM. In series [2], the IC50 at 5 min was 0.18 µM.
